Test: In vitro inhibitory activity against prenylated protein methyltransferase (PPMTase), activity expressed as Ki(inhibitory constant)
Parameters: species or system Rattus norvegicus

Structure (SMILES)	Ki [µM]
CC(C)=CCC/C(C)=C/CC/C(C)=C/CSc1cc(Cl)ccc1C(=O)O	28
CC(C)=CCC/C(C)=C/CC/C(C)=C/CSc1ccccc1C(=O)O [SALIRASIB]	2.8
CC(C)=CCC/C(C)=C/CC/C(C)=C/CC/C(C)=C/CSc1ccccc1C(=O)O	> 50
CC(C)=CCC/C(C)=C/CC/C(C)=C/CSc1c(Cl)cccc1C(=O)O	> 50
CC(C)=CCC/C(C)=C/CC/C(C)=C/CSc1ccc(F)cc1C(=O)O	6.3

Second part, the molecule after the results:

Ki [µM]	Structure (SMILES)
23	CC(C)=CCC/C(C)=C/CC/C(C)=C/CSc1cc(F)ccc1C(=O)O
8.5	CC(C)=CCC/C(C)=C/CC/C(C)=C/CSc1ccc(Cl)cc1C(=O)O
> 50	CC(C)=CCC/C(C)=C/CSc1ccccc1C(=O)O
> 50	COC(=O)c1ccccc1SC/C=C(\C)CC/C=C(\C)CCC=C(C)C

Source: ChEMBL document CHEMBL1130470, “Novel inhibitors of the prenylated protein methyltransferase reveal distinctive structural requirements” (Bioorg Med Chem Lett, 1997)
